Active and inactive are the calls of the source.

9 compounds from ChEMBL document CHEMBL1201862, “PubChem BioAssay data set” (2004) can be followed below.

One test has as its target Prothrombin (Homo sapiens, UniProt P00734). Nature of the test: Thrombin 1536 HTS Dose Response Confirmation. [Related pubchem assays: 1046 (Thrombin 1536 HTS; hits were confirmed in this assay)]. The class given is functional.
The target of test [1] is T1, Mannose-6-phosphate isomerase (Homo sapiens, UniProt P34949).
T1 sequence (P34949 whole entry): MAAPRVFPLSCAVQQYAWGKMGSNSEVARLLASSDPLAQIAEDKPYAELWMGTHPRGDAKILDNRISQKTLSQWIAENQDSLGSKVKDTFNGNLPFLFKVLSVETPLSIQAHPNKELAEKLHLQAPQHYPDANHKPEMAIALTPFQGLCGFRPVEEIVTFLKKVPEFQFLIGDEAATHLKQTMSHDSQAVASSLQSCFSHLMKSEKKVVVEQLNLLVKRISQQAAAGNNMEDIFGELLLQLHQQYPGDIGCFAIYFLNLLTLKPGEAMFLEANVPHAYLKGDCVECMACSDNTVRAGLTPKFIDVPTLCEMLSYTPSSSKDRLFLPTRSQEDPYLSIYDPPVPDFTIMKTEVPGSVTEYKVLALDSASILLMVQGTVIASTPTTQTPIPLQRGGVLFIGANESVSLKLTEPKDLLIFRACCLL
Nature of the test: human PMI inhibitors, high substrate, primary screen, biochemical, fluorescence intensity, high mannose 6-phosphate (AID 1220).

The target of another test is T2, Protein Tat (Human immunodeficiency virus type 1 group M subtype B (isolate HXB2)(HIV-1), UniProt P04608).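 Note: tat binding to TAR RNA read out by fluorescence polarization.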
T2 sequence (P04608 whole entry): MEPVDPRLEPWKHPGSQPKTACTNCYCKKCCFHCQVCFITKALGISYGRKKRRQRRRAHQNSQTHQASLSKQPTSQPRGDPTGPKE
The class given is functional.

The next test addresses Cytochrome P450 2C19 (Homo sapiens, UniProt P33261). Nature of the test: qHTS Assay for Inhibitors and Substrates of Cytochrome P450 2C19. [Related pubchem assays: 410 ]. Format: ADME. The settings on record: read-out: Potency.
Test [2] addresses E3 ubiquitin-protein ligase Mdm2 (Homo sapiens, UniProt Q00987). In words: enhancers of MDM2-luciferase reporter signal, concentration-effect titration, project on inhibitors of MDM2 ubiquitin ligase, cellular assay, luminescent readout, 384-well plate format (AID 1394).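 Note: MDM2 E3 inhibitors raise luminescence so EC50 is for signal enhancement.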 The class given is functional. On the technique in general: Reporter assays use an easily measured gene product as a stand-in for the process of interest.

Test [3] concerns Streptococcus sp. 'group A'. Nature of the test: growth inhibition of control SK(-) GAS strain, dose response, counter-screen for streptokinase expression inhibitor project, luminescence, kanamycin, BacTiterGlo, confirmation (AID 1900). Format: functional, organism-based. In general terms: Counterscreens check selectivity or assay interference.
Test [4] is described as follows: inhibitors of intracellular T. cruzi replication, confirmation, NIH3T3 host cells, beta-gal luminescence (AID 2044).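 Note: intracellular parasites grown in NIH/3T3 mouse fibroblasts as host cells; luminescent beta-galactosidase reporter signal from transgenic T. cruzi replicating inside host cells; inhibitors lower the luminescence signal.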 The class given is functional, cell-based.
Test [5] is described as follows: cytotoxicity toward NIH3T3 fibroblasts, dose response, counter-screen, cell-based, ATP luminescence, mouse fibroblasts (AID 2010).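 Note: cells exposed to compound for about 90 hours before reading.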 Format: functional.
The test system of the next test is Streptococcus. Nature of the test: Group A Streptococcus viability loss, dose response, counter-screen for streptokinase expression inhibitor project, luminescence, BacTiterGlo (AID 1915).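 Note: potency for reduction of bacterial viability or growth.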 The class given is functional, organism-based.
Another test addresses X-box-binding protein 1 (Homo sapiens, UniProt P17861). Format: functional, Cricetulus griseus.
The target in test [6] is T3, High affinity choline transporter 1 (Homo sapiens, UniProt Q9GZV3).
T3 sequence (Q9GZV3 whole entry): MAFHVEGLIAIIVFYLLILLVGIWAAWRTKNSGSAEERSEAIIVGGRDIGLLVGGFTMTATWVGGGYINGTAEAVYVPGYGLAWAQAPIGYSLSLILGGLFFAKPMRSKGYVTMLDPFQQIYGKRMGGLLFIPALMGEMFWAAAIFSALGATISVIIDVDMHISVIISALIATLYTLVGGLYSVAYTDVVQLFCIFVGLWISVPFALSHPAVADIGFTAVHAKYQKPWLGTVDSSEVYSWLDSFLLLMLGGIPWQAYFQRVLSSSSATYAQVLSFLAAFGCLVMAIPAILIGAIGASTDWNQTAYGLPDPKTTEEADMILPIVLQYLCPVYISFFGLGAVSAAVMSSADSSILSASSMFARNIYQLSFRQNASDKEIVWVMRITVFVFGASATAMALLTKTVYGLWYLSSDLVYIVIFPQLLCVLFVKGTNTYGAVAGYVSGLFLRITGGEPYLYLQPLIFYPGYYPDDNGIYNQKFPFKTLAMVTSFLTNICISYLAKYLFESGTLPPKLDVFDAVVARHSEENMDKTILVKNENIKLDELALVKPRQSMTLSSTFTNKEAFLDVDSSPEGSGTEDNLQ
Nature of the test: CHT inhibitors, dose response, cell-based, 5-point CRC, membrane potential dye (AID 504840). Format: functional.

Test [7] has as its target Sphingosine 1-phosphate receptor 2 (Homo sapiens, UniProt O95136). Nature of the test: Dose Response Cell Based Assay for Agonists of the S1P2 Receptor. [Related pubchem assays: 729, 736, 843 ]. The class given is functional.
Test [8] has as its target Aryl hydrocarbon receptor (Homo sapiens, UniProt P35869). Nature of the test: Luminescence-based cell-based high throughput dose response assay for activators of the Aryl Hydrocarbon Receptor (AHR). [Related pubchem assays: 2796 (Primary screen (AHR activators in singlicate)), 2845 (Confirmation screen (AHR activators in triplicate)), 434939 (Counterscreen (PXR activators in triplicate)), 2804 (Summary (AHR activators))]. The class given is ADME.

For test [9], the target named is T4, Tyrosine-protein phosphatase non-receptor type 7 (Homo sapiens, UniProt P35236).
T4 sequence (P35236 whole entry): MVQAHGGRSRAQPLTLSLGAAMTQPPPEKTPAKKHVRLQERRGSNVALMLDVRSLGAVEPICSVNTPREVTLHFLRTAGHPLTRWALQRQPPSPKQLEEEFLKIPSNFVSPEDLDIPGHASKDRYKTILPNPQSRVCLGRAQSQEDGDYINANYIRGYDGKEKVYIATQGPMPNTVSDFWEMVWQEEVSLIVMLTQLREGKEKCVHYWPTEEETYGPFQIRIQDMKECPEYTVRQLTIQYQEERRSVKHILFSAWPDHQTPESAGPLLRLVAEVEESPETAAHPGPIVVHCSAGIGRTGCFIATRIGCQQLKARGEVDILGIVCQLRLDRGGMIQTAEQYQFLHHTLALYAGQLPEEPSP
Nature of the test: inhibitors of human HePTP phosphatase, […], biochemical, absorbance, leukemia target (AID 521). Format: functional.

The next test has as its target Ephrin type-A receptor 4 (Mus musculus, UniProt Q03137). Nature of the test: inhibitors of EphA4 binding to KYL peptide, primary screen, biochemical, colorimetric, mouse EphA4 (AID 689). The class given is functional.
The target of test [10] is Heat shock protein HSP 90-alpha (Homo sapiens, UniProt P07900). In words: Luminescence-based dose response biochemical high throughput screening assay for inhibitors of the Heat Shock Protein 90 (HSP90). [Related pubchem assays: 1831 (Summary AID.), 1846 (Confirmation screen.), 1789 (Primary screen.)].
The target of test [11] is T5, Low molecular weight phosphotyrosine protein phosphatase (Homo sapiens, UniProt P24666).
T5 sequence (P24666 whole entry): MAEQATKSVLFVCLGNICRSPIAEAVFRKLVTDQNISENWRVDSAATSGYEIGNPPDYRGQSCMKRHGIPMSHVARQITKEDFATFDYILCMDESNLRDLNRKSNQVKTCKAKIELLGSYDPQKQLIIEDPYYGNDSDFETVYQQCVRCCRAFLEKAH
Nature of the test: LMPTP phosphatase inhibitors, dose response, biochemical, OMFP substrate, fluorescence intensity, set 2 (AID 743307). Format: functional.

In test [12] the target is T5, Low molecular weight phosphotyrosine protein phosphatase. In words: LMPTP phosphatase inhibitors, colorimetric pNPP readout, dose response, orthogonal assay, biochemical, absorbance, pNPP substrate, LMPTP-A isoform, set 2 (AID 743308). The class given is functional.
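Throughout, for Absolute IC50 (XBP1): confirmatory dose-response counter-screen serving a CHOP assay.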

Chain of E3 ubiquitin-protein ligase Mdm2 (Q00987 whole entry): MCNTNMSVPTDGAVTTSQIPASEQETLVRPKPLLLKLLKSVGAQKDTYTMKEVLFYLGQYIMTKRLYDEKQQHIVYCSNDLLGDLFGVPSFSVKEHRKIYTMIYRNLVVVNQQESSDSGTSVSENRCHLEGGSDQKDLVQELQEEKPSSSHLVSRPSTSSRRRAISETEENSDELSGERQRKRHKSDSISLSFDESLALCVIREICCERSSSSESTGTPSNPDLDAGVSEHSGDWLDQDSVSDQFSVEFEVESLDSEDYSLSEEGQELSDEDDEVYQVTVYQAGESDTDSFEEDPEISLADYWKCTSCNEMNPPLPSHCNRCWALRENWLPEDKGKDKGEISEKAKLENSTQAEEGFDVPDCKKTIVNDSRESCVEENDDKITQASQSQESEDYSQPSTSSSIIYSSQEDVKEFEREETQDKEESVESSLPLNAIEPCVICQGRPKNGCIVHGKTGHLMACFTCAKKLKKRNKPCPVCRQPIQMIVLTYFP
Chain of Aryl hydrocarbon receptor (P35869 whole entry): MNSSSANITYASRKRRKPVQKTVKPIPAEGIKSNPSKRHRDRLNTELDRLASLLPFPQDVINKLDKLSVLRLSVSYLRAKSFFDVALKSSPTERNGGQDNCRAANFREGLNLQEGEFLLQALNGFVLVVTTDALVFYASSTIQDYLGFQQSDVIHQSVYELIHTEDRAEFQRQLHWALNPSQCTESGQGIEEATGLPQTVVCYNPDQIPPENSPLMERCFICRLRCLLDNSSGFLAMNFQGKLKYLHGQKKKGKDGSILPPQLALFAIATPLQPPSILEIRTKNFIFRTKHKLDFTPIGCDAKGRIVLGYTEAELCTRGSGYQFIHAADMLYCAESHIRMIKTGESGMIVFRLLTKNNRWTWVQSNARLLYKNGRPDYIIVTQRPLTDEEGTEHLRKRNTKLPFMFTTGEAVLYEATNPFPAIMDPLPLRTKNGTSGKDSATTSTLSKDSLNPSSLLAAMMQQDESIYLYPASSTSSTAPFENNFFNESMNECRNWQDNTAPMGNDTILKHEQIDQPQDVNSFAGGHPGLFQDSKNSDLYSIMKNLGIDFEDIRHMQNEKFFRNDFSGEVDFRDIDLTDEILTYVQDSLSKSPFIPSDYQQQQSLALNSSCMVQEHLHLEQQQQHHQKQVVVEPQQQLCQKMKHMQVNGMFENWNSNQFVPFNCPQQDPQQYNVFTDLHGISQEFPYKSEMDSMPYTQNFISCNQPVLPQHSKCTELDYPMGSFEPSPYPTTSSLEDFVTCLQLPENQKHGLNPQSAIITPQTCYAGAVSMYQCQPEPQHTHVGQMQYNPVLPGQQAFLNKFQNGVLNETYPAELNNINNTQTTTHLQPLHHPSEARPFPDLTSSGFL
Chain of Cytochrome P450 2C19 (P33261 whole entry): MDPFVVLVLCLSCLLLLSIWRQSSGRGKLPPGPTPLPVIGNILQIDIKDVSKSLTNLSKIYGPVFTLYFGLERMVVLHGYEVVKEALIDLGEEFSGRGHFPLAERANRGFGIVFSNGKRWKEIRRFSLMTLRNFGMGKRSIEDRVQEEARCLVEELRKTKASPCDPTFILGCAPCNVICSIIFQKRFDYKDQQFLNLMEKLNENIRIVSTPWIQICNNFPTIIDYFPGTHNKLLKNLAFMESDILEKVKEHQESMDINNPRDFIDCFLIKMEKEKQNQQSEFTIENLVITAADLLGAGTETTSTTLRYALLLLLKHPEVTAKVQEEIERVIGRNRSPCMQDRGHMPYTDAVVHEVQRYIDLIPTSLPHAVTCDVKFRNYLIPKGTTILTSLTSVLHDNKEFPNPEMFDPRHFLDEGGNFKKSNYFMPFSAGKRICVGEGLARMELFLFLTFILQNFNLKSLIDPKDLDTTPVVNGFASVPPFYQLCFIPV
Chain of Ephrin type-A receptor 4 (Q03137 whole entry): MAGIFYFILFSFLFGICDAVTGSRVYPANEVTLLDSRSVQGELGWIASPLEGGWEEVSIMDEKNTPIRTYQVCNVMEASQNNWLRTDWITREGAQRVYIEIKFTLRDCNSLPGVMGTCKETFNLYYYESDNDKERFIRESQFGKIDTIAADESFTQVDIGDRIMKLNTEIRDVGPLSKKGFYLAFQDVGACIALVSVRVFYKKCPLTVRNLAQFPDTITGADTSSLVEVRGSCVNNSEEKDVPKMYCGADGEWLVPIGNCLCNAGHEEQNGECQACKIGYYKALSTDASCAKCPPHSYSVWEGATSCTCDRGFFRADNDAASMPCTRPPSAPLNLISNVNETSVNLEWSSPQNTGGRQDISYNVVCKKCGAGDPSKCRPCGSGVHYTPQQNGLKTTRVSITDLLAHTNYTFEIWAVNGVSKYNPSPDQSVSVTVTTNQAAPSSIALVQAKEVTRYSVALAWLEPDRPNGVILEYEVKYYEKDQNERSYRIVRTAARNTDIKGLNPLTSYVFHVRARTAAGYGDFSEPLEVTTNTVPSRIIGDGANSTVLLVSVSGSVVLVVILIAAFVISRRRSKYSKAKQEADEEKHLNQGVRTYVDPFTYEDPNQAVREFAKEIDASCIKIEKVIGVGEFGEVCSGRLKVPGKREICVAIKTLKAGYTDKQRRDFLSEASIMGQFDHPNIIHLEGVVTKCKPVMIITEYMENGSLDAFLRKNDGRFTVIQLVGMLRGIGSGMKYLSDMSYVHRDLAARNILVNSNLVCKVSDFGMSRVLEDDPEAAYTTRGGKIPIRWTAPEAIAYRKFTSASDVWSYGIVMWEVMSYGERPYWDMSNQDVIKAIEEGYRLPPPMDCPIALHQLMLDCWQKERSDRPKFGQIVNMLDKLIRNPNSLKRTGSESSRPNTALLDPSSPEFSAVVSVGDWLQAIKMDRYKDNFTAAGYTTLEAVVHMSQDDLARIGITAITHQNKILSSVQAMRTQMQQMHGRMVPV
Chain of Sphingosine 1-phosphate receptor 2 (O95136 whole entry): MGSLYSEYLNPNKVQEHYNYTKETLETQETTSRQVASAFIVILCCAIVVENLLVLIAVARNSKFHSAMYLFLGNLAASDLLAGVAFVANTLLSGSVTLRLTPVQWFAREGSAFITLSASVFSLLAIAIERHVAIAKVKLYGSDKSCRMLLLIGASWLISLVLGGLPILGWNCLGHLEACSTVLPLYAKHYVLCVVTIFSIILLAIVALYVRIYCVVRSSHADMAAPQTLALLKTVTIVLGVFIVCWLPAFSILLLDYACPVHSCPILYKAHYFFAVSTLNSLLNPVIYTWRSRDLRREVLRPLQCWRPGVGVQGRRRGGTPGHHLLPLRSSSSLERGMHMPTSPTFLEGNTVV
Chain of X-box-binding protein 1 (P17861 whole entry): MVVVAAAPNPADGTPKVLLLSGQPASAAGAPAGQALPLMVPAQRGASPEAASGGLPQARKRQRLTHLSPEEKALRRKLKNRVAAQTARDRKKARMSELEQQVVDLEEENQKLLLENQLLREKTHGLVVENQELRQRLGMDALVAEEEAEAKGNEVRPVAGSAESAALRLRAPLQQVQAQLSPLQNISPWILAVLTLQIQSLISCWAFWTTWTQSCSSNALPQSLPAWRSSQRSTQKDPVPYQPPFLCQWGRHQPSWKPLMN

Regarding `Nc1cccc2c1=NC1(CCCCC1)[N+]=2[O-]`, the IC50 – broadly, the concentration needed to halve the response being measured – on Prothrombin was > 50 µM (not active); in test [1], > 50 µM (not active); at Protein Tat, > 100 µM (inconclusive).

In the case of `COC(=O)NC(c1cccc(F)c1)[C@]1(C(C)=O)CCCC1=O` (stereo not given in full), the AC50 at Cytochrome P450 2C19 was 2.51 µM (inconclusive).

In the case of `CC(C)c1ccc2c(c1)C1(NN=C(c3ccccc3)S1)C(=O)N2` (stereo not given), the EC50 (commonly the concentration at which the effect is half-maximal) in [2] was 1.42 µM (active); in test [3], < 0.06 µM (active); in test [4] it was 0.333 µM (active); in [5], 6.8 µM (active); in the test on Streptococcus, 2.81 µM (active). At X-box-binding protein 1, the “Absolute IC50 (XBP1)” value stood at 10 µM. The IC50 in test [6] is 12.6 µM (active).

As for `O=C(NCC1(c2ccccc2)CCCC1)C(=O)N1CCOCC1`, the EC50 in test [7] was > 50 µM (not active).

As for `CCOCCc1nnc(NC(=O)c2ccc(OC)c(OC)c2)s1`, the EC50 in test [8] is 6.13 µM (active).

Regarding `O=C(Nc1ccccc1)c1ccc(NCC2CCCO2)c(S(=O)(=O)N2CCOCC2)c1` (stereo not given), the IC50 in test [9] is > 100 µM (not active).

Regarding `O=C(CCN1C(=O)/C(=C/C=C/c2ccccc2)SC1=S)Nc1nccs1`, the IC50 at Ephrin type-A receptor 4 is given as > 100 µM (not active).

For the compound `CCc1ccc(Nc2n[n+](-c3ccccc3)c(-c3ccc(N(CC)CC)cc3)s2)cc1`, the figures for the EC50 in test [4] and in test [5] were 0.408 µM (active) and > 60 µM (not active), respectively. The IC50 in test [10] was 5.48 µM (active).

For the compound `Fc1cccc(-c2cc(NCCCN3CCCCC3)c3ccccc3n2)c1`, the IC50 in test [11] is 1.84 µM (active); in test [12], 4 µM (active).
